Structures can show the parent of a compound that is named as a salt.
What follows are molecules tested against T1, recombinant full-length WRN protein (1-1432) (Homo sapiens, UniProt Q14191) (assay: WRN unwinding activity, fluorogenic 384-well assay (Example A)). Settings: WRN unwinding activity, 4 hr; Table 2; read-out: 4 hr UNW pIC50 (converted).
T1 construct: recombinant full-length WRN protein (1-1432)
Format: biochemical
Procedure, shortened: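 Read-out is end-point unwinding of a fluorophore/quencher duplex (ex 525, em 598 nm) after 60 min with 200 μM ATP and 12 nM DNA (2× stocks), EDTA stop. Compound first sat 4 h with 200 pM WRN (2× stock) in pH 8.0 Tris buffer; four-parameter fit gives pIC50.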

T1 sequence (Q14191 whole entry): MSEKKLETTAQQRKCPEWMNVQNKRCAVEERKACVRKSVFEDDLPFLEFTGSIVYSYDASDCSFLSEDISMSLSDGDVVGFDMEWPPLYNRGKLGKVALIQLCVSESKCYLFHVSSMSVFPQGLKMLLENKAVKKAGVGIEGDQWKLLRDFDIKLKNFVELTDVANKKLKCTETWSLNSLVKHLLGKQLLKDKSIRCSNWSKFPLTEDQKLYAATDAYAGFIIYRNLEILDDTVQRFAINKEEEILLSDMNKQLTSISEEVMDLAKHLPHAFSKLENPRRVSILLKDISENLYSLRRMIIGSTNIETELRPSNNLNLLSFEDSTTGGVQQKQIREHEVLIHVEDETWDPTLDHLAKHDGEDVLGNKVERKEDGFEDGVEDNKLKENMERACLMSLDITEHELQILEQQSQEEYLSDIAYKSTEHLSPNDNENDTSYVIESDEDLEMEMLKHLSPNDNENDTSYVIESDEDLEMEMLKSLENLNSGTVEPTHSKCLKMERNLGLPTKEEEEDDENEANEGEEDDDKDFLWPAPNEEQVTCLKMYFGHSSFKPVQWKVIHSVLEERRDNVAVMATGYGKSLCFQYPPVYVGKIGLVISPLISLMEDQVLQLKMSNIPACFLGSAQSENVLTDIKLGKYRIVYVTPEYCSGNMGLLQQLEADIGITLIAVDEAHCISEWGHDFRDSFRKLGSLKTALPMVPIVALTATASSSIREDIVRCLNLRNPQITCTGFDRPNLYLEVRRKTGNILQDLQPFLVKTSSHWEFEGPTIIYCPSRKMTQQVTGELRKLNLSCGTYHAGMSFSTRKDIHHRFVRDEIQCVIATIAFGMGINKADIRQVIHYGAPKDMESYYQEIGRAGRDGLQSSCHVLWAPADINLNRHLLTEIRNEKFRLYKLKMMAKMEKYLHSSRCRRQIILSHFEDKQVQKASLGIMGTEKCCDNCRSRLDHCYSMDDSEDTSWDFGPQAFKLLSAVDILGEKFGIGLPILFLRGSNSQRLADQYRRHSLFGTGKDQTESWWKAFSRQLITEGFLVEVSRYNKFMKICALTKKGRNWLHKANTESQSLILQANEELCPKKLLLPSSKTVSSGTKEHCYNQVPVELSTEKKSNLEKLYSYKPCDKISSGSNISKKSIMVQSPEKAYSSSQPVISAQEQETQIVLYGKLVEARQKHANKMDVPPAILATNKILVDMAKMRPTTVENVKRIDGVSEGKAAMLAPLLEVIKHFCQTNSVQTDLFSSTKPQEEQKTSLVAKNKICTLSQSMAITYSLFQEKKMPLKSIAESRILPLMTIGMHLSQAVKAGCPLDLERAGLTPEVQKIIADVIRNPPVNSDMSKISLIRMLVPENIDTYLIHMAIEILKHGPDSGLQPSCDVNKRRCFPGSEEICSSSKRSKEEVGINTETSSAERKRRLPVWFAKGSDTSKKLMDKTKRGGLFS

IC50 [nM]	Structure (SMILES)
20	O=C(O)[C@@H]1[C@@H](c2ccc(-c3ccn[nH]3)cc2)CCC[C@H]1C(=O)Nc1ccc(C(F)(F)F)cc1F [Example 5, (1R,2S,6R)-2-(4-(1H-pyrazol-5-yl)phenyl)-6-((2-fluoro-4-(trifluoromethyl)phenyl)carbamoyl)cyclohexane-1-carboxylic acid]
100	O=C(O)[C@@H]1[C@@H](c2ccc(-c3ccncc3)cc2)CCC[C@H]1C(=O)Nc1ccc(C(F)(F)F)cc1F [Example 7, (1R,2R,6S)-2-((2-fluoro-4-(trifluoromethyl)phenyl)carbamoyl)-6-(4-(pyridin-4-yl)phenyl)cyclohexane-1-carboxylic acid]
63.1	Cn1cc(-c2ccc([C@H]3CCC[C@@H](C(=O)Nc4ccc(C(F)(F)F)cc4F)[C@@H]3C(=O)O)cc2)cn1 [Example 12, (1R,2R,6S)-2-((2-fluoro-4-(trifluoromethyl)phenyl)carbamoyl)-6-(4-(1-methyl-1H-pyrazol-4-yl)phenyl)cyclohexane-1-carboxylic acid]
63.1	Cc1ncccc1-c1ccc([C@H]2CCC[C@@H](C(=O)Nc3ccc(C(F)(F)F)cc3F)[C@@H]2C(=O)O)cc1 [Example 13, (1R,2R,6S)-2-((2-fluoro-4-(trifluoromethyl)phenyl)carbamoyl)-6-(4-(2-methylpyridin-3-yl)phenyl)cyclohexane-1-carboxylic acid, formic acid salt]
7.94	O=C(O)[C@@H]1[C@@H](c2ccc(-c3cccc(O)n3)cc2)CCC[C@H]1C(=O)Nc1ccc(C(F)(F)F)cc1F [Example 14, (1R,2R,6S)-2-((2-fluoro-4-(trifluoromethyl)phenyl)carbamoyl)-6-(4-(6-hydroxypyridin-2-yl)phenyl)cyclohexane-1-carboxylic acid]
20	O=C(O)[C@@H]1[C@@H](c2ccc(-c3cnn4c3CCC4)cc2)CCC[C@H]1C(=O)Nc1ccc(C(F)(F)F)cc1F [Example 17, (1R,2S,6R)-2-(4-(5,6-dihydro-4H-pyrrolo[1,2-b]pyrazol-3-yl)phenyl)-6-((2-fluoro-4-(trifluoromethyl)phenyl)carbamoyl)cyclohexane-1-carboxylic acid]
10000	COC(=O)c1cncc(-c2ccc([C@H]3CCC[C@@H](C(=O)Nc4ccc(C(F)(F)F)cc4F)[C@@H]3C(=O)O)cc2)c1 [Example 26, (1R,2R,6S)-2-((2-fluoro-4-(trifluoromethyl)phenyl)carbamoyl)-6-(4-(5-(methoxycarbonyl)pyridin-3-yl)phenyl)cyclohexane-1-carboxylic acid]
31.6	Cc1nsc(-c2ccc([C@H]3CCC[C@@H](C(=O)Nc4ccc(C(F)(F)F)cc4F)[C@@H]3C(=O)O)cc2)c1O [Example 28, (1R,2R,6S)-2-((2-fluoro-4-(trifluoromethyl)phenyl)carbamoyl)-6-(4-(4-hydroxy-3-methylisothiazol-5-yl)phenyl)cyclohexane-1-carboxylic acid]
126	COC(=O)c1sccc1-c1ccc([C@H]2CCC[C@@H](C(=O)Nc3ccc(C(F)(F)F)cc3F)[C@@H]2C(=O)O)cc1 [Example 33, (1R,2R,6S)-2-((2-fluoro-4-(trifluoromethyl)phenyl)carbamoyl)-6-(4-(2-(methoxycarbonyl)thiophen-3-yl)phenyl)cyclohexane-1-carboxylic acid]
2510	O=C(O)[C@@H]1[C@@H](c2ccc(-c3ncnc4sccc34)cc2)CCC[C@H]1C(=O)Nc1ccc(C(F)(F)F)cc1F [Example 34, (1R,2R,6S)-2-((2-fluoro-4-(trifluoromethyl)phenyl)carbamoyl)-6-(4-(thieno[2,3-d]pyrimidin-4-yl)phenyl)cyclohexane-1-carboxylic acid]
1.58	O=C(O)[C@@H]1[C@@H](c2ccc(-c3cccnn3)cc2)CCC[C@H]1C(=O)Nc1ccc(C(F)(F)F)cc1F [Example 38, (1R,2R,6S)-2-((2-fluoro-4-(trifluoromethyl)phenyl)carbamoyl)-6-(4-(pyridazin-3-yl)phenyl)cyclohexane-1-carboxylic acid]
1000	COc1cscc1-c1ccc([C@H]2CCC[C@@H](C(=O)Nc3ccc(C(F)(F)F)cc3F)[C@@H]2C(=O)O)cc1 [Example 42, (1R,2R,6S)-2-((2-fluoro-4-(trifluoromethyl)phenyl)carbamoyl)-6-(4-(4-methoxythiophen-3-yl)phenyl) cyclohexane-1-carboxylic acid]
10	Cc1cscc1-c1ccc([C@H]2CCC[C@@H](C(=O)Nc3ccc(C(F)(F)F)cc3F)[C@@H]2C(=O)O)cc1 [Example 43, (1R,2R,6S)-2-((2-fluoro-4-(trifluoromethyl)phenyl)carbamoyl)-6-(4-(4-methylthiophen-3-yl)phenyl)cyclohexane-1-carboxylic acid]

Second part, the molecule before the results:

Structure (SMILES)	IC50 [nM]
Cc1nc2cc(S(=O)(=O)N(C)c3ccc([C@H]4C[C@]5(CCCO5)C[C@@H](C(=O)Nc5ccc(C(F)(F)F)cc5F)[C@@H]4C(=O)O)cc3)ccc2n1C (stereo in doubt) [Example 388, rel-(5R,7R,8R,9S)-7-((2-fluoro-4-(trifluoromethyl)phenyl)carbamoyl)-9-(4-((N,1,2-trimethyl-1H-benzo[d]imidazole)-5-sulfonamido)phenyl)-1-oxaspiro[4.5]decane-8-carboxylic acid]	3.98
Cc1nc2cc(S(=O)(=O)N(C)c3ccc([C@H]4C[C@@H]5COC[C@@H]5[C@@H](C(=O)Nc5ccc(C(F)(F)F)cc5F)[C@@H]4C(=O)O)cc3)ccc2n1C (stereo in doubt) [Example 393, rel-(3aR,4S,5S,6R,7aR)-4-((2-fluoro-4-(trifluoromethyl)phenyl)carbamoyl)-6-(4-((N,1,2-trimethyl-1H-benzo[d]imidazole)-5-sulfonamido)phenyl)octahydroisobenzofuran-5-carboxylic acid]	251
Cc1nc2cc(S(=O)(=O)N(C)c3ccc([C@@H]4C[C@H]5COC[C@H]5[C@H](C(=O)Nc5ccc(C(F)(F)F)cc5F)[C@H]4C(=O)O)cc3)ccc2n1C (stereo in doubt) [Example 394, rel-(3aR,4S,5S,6R,7aR)-4-((2-fluoro-4-(trifluoromethyl)phenyl)carbamoyl)-6-(4-((N,1,2-trimethyl-1H-benzo[d]imidazole)-5-sulfonamido)phenyl)octahydroisobenzofuran-5-carboxylic acid]	501
O=C(O)[C@@H]1[C@@H](c2ccc(-c3ccccc3CN3CCOCC3)cc2)CCC[C@H]1C(=O)Nc1ccc(C(F)(F)F)cc1F [Example 4, (1R,2R,6S)-2-((2-fluoro-4-(trifluoromethyl)phenyl)carbamoyl)-6-(2′-(morpholinomethyl)-[1,1′-biphenyl]-4-yl)cyclohexane-1-carboxylic acid]	1000
O=C(O)[C@@H]1[C@@H](c2ccc(-c3ccccc3COC3CCOCC3)cc2)CCC[C@H]1C(=O)Nc1ccc(C(F)(F)F)cc1F [Example 19, (1R,2R,6S)-2-((2-fluoro-4-(trifluoromethyl)phenyl)carbamoyl)-6-(2′-(((tetrahydro-2H-pyran-4-yl)oxy)methyl)-[1,1′-biphenyl]-4-yl) cyclohexane-1-carboxylic acid]	316
O=C(Cc1cccc(-c2ccc([C@H]3CCC[C@@H](C(=O)Nc4ccc(C(F)(F)F)cc4F)[C@@H]3C(=O)O)cc2)c1)NC1CC1 [Example 20, (1R,2S,6R)-2-(3′-(2-(cyclopropylamino)-2-oxoethyl)-[1,1′-biphenyl]-4-yl)-6-((2-fluoro-4-(trifluoromethyl)phenyl)carbamoyl)cyclohexane-1-carboxylic acid]	6310
O=C(O)[C@@H]1[C@@H](c2ccc(-c3cccc(COC4CCOCC4)c3)cc2)CCC[C@H]1C(=O)Nc1ccc(C(F)(F)F)cc1F [Example 21, (1R,2R,6S)-2-((2-fluoro-4-(trifluoromethyl)phenyl)carbamoyl)-6-(3′-(((tetrahydro-2H-pyran-4-yl)oxy)methyl)-[1,1′-biphenyl]-4-yl) cyclohexane-1-carboxylic acid]	7940
Cc1cn2nc(-c3ccc([C@H]4CCC[C@@H](C(=O)Nc5ccc(C(F)(F)F)cc5F)[C@@H]4C(=O)O)cc3)ccc2n1 [Example 22, (1R,2R,6S)-2-((2-fluoro-4-(trifluoromethyl)phenyl)carbamoyl)-6-(4-(2-methylimidazo[1,2-b]pyridazin-6-yl)phenyl)cyclohexane-1-carboxylic acid]	1000
O=C(O)[C@@H]1[C@@H](c2ccc(-c3cnn(CC4CC4)c3)cc2)CCC[C@H]1C(=O)Nc1ccc(C(F)(F)F)cc1F [Example 23, (1R,2S,6R)-2-(4-(1-(cyclopropylmethyl)-1H-pyrazol-4-yl)phenyl)-6-((2-fluoro-4-(trifluoromethyl)phenyl)carbamoyl)cyclohexane-1-carboxylic acid]	126
O=C(O)[C@@H]1[C@@H](c2ccc(-c3ccc4nnnn4n3)cc2)CCC[C@H]1C(=O)Nc1ccc(C(F)(F)F)cc1F [Example 29, (1R,2R,6S)-2-((2-fluoro-4-(trifluoromethyl)phenyl)carbamoyl)-6-(4-(tetrazolo[1,5-b]pyridazin-6-yl)phenyl) cyclohexane-1-carboxylic acid]	3980
O=C(O)[C@@H]1[C@@H](c2ccc(-c3ccc4nncn4n3)cc2)CCC[C@H]1C(=O)Nc1ccc(C(F)(F)F)cc1F [Example 30, (1R,2S,6R)-2-(4-([1,2,4]triazolo[4,3-b]pyridazin-6-yl)phenyl)-6-((2-fluoro-4-(trifluoromethyl)phenyl)carbamoyl)cyclohe xane-1-carboxylic acid]	6310
COC(=O)N1CCc2c(cnnc2-c2ccc([C@H]3CCC[C@@H](C(=O)Nc4ccc(C(F)(F)F)cc4F)[C@@H]3C(=O)O)cc2)C1 [Example 40, (1R,2R,6S)-2-((2-fluoro-4-(trifluoromethyl)phenyl)carbamoyl)-6-(4-(6-(methoxycarbonyl)-5,6,7,8-tetrahydropyrido[3,4-d]pyridazin-1-yl)phenyl)cyclohexane-1-carboxylic acid]	10000

Reference: patent US12662451B2, “Chemical compounds and uses thereof” (GLAXOSMITHKLINE INTELLECTUAL PROPERTY (NO.4) LIMITED, priority 2023, dated 2026)
